{
  "source": "PubChem BioAssay AID248",
  "about": "(DTP/NCI, 2004)",
  "system": "L1210 leukemia ip in BDF1 mice, survival T/C",
  "assay": "NCI In Vivo Anticancer Drug Screen. Data for tumor model L1210 Leukemia (intraperitoneal) in B6D2F1 (BDF1) mice",
  "conditions": "endpoint: mean survival time, higher = longer survival",
  "summary_of_the_method": "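Tumor cells were implanted, animals were treated, and survival was followed. The result divides the treated measurement by the vehicle-control measurement.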",
  "note": "“And” between values parts separate entries of the source, which are not always exact repeats. Identical values can stand only once. Toxic doses and inconclusive results are not listed.",
  "data": [
    {"smiles": "O=NN(CCCl)C(=O)NC1CCCCC1", "values": [
      {"measurement": "T/C", "setting": "dose: 0.06 mg/kg/injection, schedule: Q03HX024 (ip), vehicle: saline", "value": "101 % of control"},
      {"measurement": "T/C", "setting": "dose: 0.06 mg/kg/injection, schedule: Q03HX024 (oral), vehicle: saline", "value": "98 % of control"},
      {"measurement": "T/C", "setting": "dose: 0.06 mg/kg/injection, schedule: Q03HX040 (oral), vehicle: saline", "value": "115 % of control"},
      {"measurement": "T/C", "setting": "dose: 0.13 mg/kg/injection, schedule: Q03HX024 (oral), vehicle: saline", "value": "108 % of control"},
      {"measurement": "T/C", "setting": "dose: 0.13 mg/kg/injection, schedule: Q03HX040 (oral), vehicle: saline", "value": "153 % of control"},
      {"measurement": "T/C", "setting": "dose: 0.16 mg/kg/injection, schedule: Q#B X003 (ip), vehicle: carboxymethylcellulose (CMC)", "value": "103 % of control"},
      {"measurement": "T/C", "setting": "dose: 0.33 mg/kg/injection, schedule: Q#B X003 (ip), vehicle: carboxymethylcellulose (CMC)", "value": "95 % of control"},
      {"measurement": "T/C", "setting": "dose: 0.39 mg/kg/injection, schedule: Q03HX040 (ip), vehicle: carboxymethylcellulose (CMC)", "value": "100 % of control"},
      {"measurement": "T/C", "setting": "dose: 0.5 mg/kg/injection, schedule: Q01DX005 (ip), vehicle: saline", "value": "101 % of control"},
      {"measurement": "T/C", "setting": "dose: 0.66 mg/kg/injection, schedule: Q#B X003 (ip), vehicle: carboxymethylcellulose (CMC)", "value": "97 % of control"},
      {"measurement": "T/C", "setting": "dose: 0.78 mg/kg/injection, schedule: Q03HX024 (ip), vehicle: carboxymethylcellulose (CMC)", "value": "106 % of control"},
      {"measurement": "T/C", "setting": "dose: 1.0 mg/kg/injection, schedule: Q01DX001 (ip), vehicle: saline", "value": "104 % of control"},
      {"measurement": "T/C", "setting": "dose: 1.0 mg/kg/injection, schedule: Q01DX001 (oral), vehicle: saline", "value": "100 % of control"},
      {"measurement": "T/C", "setting": "dose: 1.0 mg/kg/injection, schedule: Q01DX005 (ip), vehicle: saline", "value": "104 % of control"},
      {"measurement": "T/C", "setting": "dose: 1.0 mg/kg/injection, schedule: Q03HX040 (ip), vehicle: saline", "value": "100 % of control"},
      {"measurement": "T/C", "setting": "dose: 1.0 mg/kg/injection, schedule: Q## X001 (ip), vehicle: carboxymethylcellulose (CMC)", "value": "106 % of control"},
      {"measurement": "T/C", "setting": "dose: 1.33 mg/kg/injection, schedule: Q#B X003 (ip), vehicle: carboxymethylcellulose (CMC)", "value": "110 % of control"},
      {"measurement": "T/C", "setting": "dose: 1.56 mg/kg/injection, schedule: Q01DX009 (ip), vehicle: carboxymethylcellulose (CMC)", "value": "105 % of control"},
      {"measurement": "T/C", "setting": "dose: 1.56 mg/kg/injection, schedule: Q03HX024 (ip), vehicle: carboxymethylcellulose (CMC)", "value": "120 % of control"},
      {"measurement": "T/C", "setting": "dose: 1.56 mg/kg/injection, schedule: Q03HX040 (ip), vehicle: carboxymethylcellulose (CMC)", "value": "119 % of control"},
      {"measurement": "T/C", "setting": "dose: 2.0 mg/kg/injection, schedule: Q01DX Z (ip), vehicle: carboxymethylcellulose (CMC)", "value": "124 % of control"},
      {"measurement": "T/C", "setting": "dose: 2.0 mg/kg/injection, schedule: Q04DX004 (ip), vehicle: Klucel (hydroxypropylcellulose) (HPC)", "value": "94 % of control"},
      {"measurement": "T/C", "setting": "dose: 2.66 mg/kg/injection, schedule: Q#B X003 (ip), vehicle: carboxymethylcellulose (CMC)", "value": "121 % of control"},
      {"measurement": "T/C", "setting": "dose: 2.8 mg/kg/injection, schedule: Q01DX015 (ip), vehicle: carboxymethylcellulose (CMC)", "value": "112 % of control"},
      {"measurement": "T/C", "setting": "dose: 3.12 mg/kg/injection, schedule: Q01DX005 (ip), vehicle: carboxymethylcellulose (CMC)", "value": "113 % of control"},
      {"measurement": "T/C", "setting": "dose: 3.12 mg/kg/injection, schedule: Q01DX Z (ip), vehicle: carboxymethylcellulose (CMC)", "value": "172 % of control"},
      {"measurement": "T/C", "setting": "dose: 4.0 mg/kg/injection, schedule: Q01DX009 (oral), vehicle: saline", "value": "112 % of control"},
      {"measurement": "T/C", "setting": "dose: 4.0 mg/kg/injection, schedule: Q03HX003 (oral), vehicle: saline", "value": "111 % of control"},
      {"measurement": "T/C", "setting": "dose: 4.2 mg/kg/injection, schedule: Q## X015 (ip), vehicle: carboxymethylcellulose (CMC)", "value": "113 % of control"},
      {"measurement": "T/C", "setting": "dose: 4.4 mg/kg/injection, schedule: Q04DX004 (ip), vehicle: Klucel (hydroxypropylcellulose) (HPC)", "value": "113 % of control"},
      {"measurement": "T/C", "setting": "dose: 5.0 mg/kg/injection, schedule: Q## X032 (ip), vehicle: carboxymethylcellulose (CMC)", "value": "106 % of control and 110 % of control"},
      {"measurement": "T/C", "setting": "dose: 6.0 mg/kg/injection, schedule: Q02DX005 (ip), vehicle: carboxymethylcellulose (CMC)", "value": "154 % of control"},
      {"measurement": "T/C", "setting": "dose: 6.0 mg/kg/injection, schedule: Q02DX006 (ip), vehicle: carboxymethylcellulose (CMC)", "value": "158 % of control"},
      {"measurement": "T/C", "setting": "dose: 6.0 mg/kg/injection, schedule: Q02DX007 (ip), vehicle: carboxymethylcellulose (CMC)", "value": "163 % of control"},
      {"measurement": "T/C", "setting": "dose: 6.0 mg/kg/injection, schedule: Q## X008 (ip), vehicle: carboxymethylcellulose (CMC)", "value": "108 % of control"},
      {"measurement": "T/C", "setting": "dose: 6.25 mg/kg/injection, schedule: Q01DX001 (ip), vehicle: Klucel (hydroxypropylcellulose) (HPC)", "value": "116 % of control"},
      {"measurement": "T/C", "setting": "dose: 6.25 mg/kg/injection, schedule: Q01DX001 (ip), vehicle: carboxymethylcellulose (CMC)", "value": "109 % of control"},
      {"measurement": "T/C", "setting": "dose: 6.25 mg/kg/injection, schedule: Q01DX001 (oral), vehicle: carboxymethylcellulose (CMC)", "value": "122 % of control"},
      {"measurement": "T/C", "setting": "dose: 6.25 mg/kg/injection, schedule: Q01DX005 (ip), vehicle: carboxymethylcellulose (CMC)", "value": "157 % of control"},
      {"measurement": "T/C", "setting": "dose: 6.25 mg/kg/injection, schedule: Q07DX Z (ip), vehicle: carboxymethylcellulose (CMC)", "value": "112 % of control"},
      {"measurement": "T/C", "setting": "dose: 6.7 mg/kg/injection, schedule: Q04DX004 (ip), vehicle: Klucel (hydroxypropylcellulose) (HPC)", "value": "159 % of control"},
      {"measurement": "T/C", "setting": "dose: 7.2 mg/kg/injection, schedule: Q## X032 (ip), vehicle: carboxymethylcellulose (CMC)", "value": "110 % of control"},
      {"measurement": "T/C", "setting": "dose: 7.5 mg/kg/injection, schedule: Q01DX001 (iv), vehicle: Klucel (hydroxypropylcellulose) (HPC)", "value": "114 % of control"},
      {"measurement": "T/C", "setting": "dose: 8.0 mg/kg/injection, schedule: Q03HX003 (oral), vehicle: saline", "value": "120 % of control"},
      {"measurement": "T/C", "setting": "dose: 8.0 mg/kg/injection, schedule: Q## X032 (ip), vehicle: carboxymethylcellulose (CMC)", "value": "113 % of control"}
    ]}
  ]
}
